Consider eleven molecules from patent publication US5874426A, “Cyclic amine derivatives of substituted quinoxaline 2,3-diones as glutamate receptor antagonists” (Warner-Lambert Company, priority 1995, dated 1999).

pIC50: −log10 of the molar value.

Experiment [1] concerns the target AMPA receptors. The experiment can be described thus: AMPA receptor binding affinity (Honoré et al.). Conditions: Table 1.
The target in experiment [2] is kainate site (non-NMDA receptor). The experiment can be described thus: kainate site (non-NMDA receptor) binding affinity (London and Coyle). Conditions: Table 1.
Experiment [3] concerns CF-1 strain mice. The experiment can be described thus: maximal electroshock assay in CF-1 strain mice, corneal electrodes. It counts as in vivo. The note with it: ten mice; IV; 30 seconds; 0.5 min. From the text:
The graph is the […] of mice protected versus the time in minutes.
On the technique in general: Protection in the maximal electroshock model is a classic sign of anticonvulsant action.

In general, pIC50 refers to the IC50 on a negative log10 scale, so that one unit is a factor of ten. Lower therefore signals a high IC50.

Take `Cc1c([N+](=O)[O-])cc2[nH]c(=O)c(=O)[nH]c2c1CN1CCCC1` [6-Methyl-5-pyrrolidin-1-ylmethyl-7-nitro-1,4-dihydroquinoxaline-2,3-dione]: the negative-log IC50 (pIC50) in experiment [1] is 6.66. Further, the “IC50 KA” value in experiment [2] amounted to 4.52 µM.
In experiment [1], `Cc1c([N+](=O)[O-])cc2[nH]c(=O)c(=O)[nH]c2c1CN1CCCC1C` (stereo not drawn) [6-Methyl-5-(2-methyl-pyrrolidin-1-ylmethyl)-7-nitro-1,4-dihydroquinoxaline-2,3-dione] showed a pIC50 of 6.43. The “IC50 KA” value in experiment [2] is 6.11 µM.
Turning to `Cc1c([N+](=O)[O-])cc2[nH]c(=O)c(=O)[nH]c2c1CN1CCN(C)CC1` [6-Methyl-5-(4-methyl-piperazin-1-ylmethyl)-7-nitro-1,4-dihydroquinoxaline-2,3-dione], the negative logarithm of the IC50 (pIC50) in experiment [1] was 5.61. Also, the “IC50 KA” value in experiment [2] amounted to 13.2 µM.
Taken in the same sequence, the figures for `Cc1c([N+](=O)[O-])cc2[nH]c(=O)c(=O)[nH]c2c1CN1CCCCC1` [6-Methyl-7-nitro-5-piperidin-1-ylmethyl-1,4-dihydroquinoxaline-2,3-dione] were 6.54 and 4.11 µM.
The matching figures for `Cc1c([N+](=O)[O-])cc2[nH]c(=O)c(=O)[nH]c2c1CN1CCCCCC1` [5-Azepan-1-ylmethyl-6-methyl-7-nitro-1,4-dihydroqinoxaline-2,3-dione]: 6.05 and 3.695 µM.
As to `Cc1c([N+](=O)[O-])cc2[nH]c(=O)c(=O)[nH]c2c1CN1CCC(C)CC1` [6-Methyl-5-(4-methyl-piperidin-1-ylmethyl)-7-nitro-1,4-dihydroquinoxaline-2,3-dione], the pIC50 in experiment [1] was 6.38. In addition, the “IC50 KA” value in experiment [2] turned out to be 9.95 µM.
`Cc1c([N+](=O)[O-])cc2[nH]c(=O)c(=O)[nH]c2c1CN1CCC2(CCCCC2)CC1` [5-(3-Azaspiro [5.5]undec-3-ylmethyl)-6-methyl-7-nitro-1,4-dihydroquinoxaline-2,3-dione]: the pIC50 in experiment [1] is 6.31. Also, the “IC50 KA” value in experiment [2] was determined as 6.54 µM.
Turning to “1,4,7,8,9,10-hexahydro-7-methyl-6-nitro-pyrido[3,4-f]quinoxaline-2,3-dione [PNQX]”, the “ED50 maximal electroshock dose-response” value in experiment [3] is listed as 0.5 mg/kg.
On to `Cc1c([N+](=O)[O-])cc2[nH]c(=O)c(=O)[nH]c2c1CN1CCCCC1C` (stereo not drawn) [6-Methyl-5-(2-methyl-piperidin-1-ylmethyl)-7-nitro-1,4-dihydroquinoxaline-2,3-dione], for which the pIC50 in experiment [1] was 6.31. The “IC50 KA” value in experiment [2] turned out to be 8.28 µM.
Regarding `Cc1c([N+](=O)[O-])cc2[nH]c(=O)c(=O)[nH]c2c1CN1C(C)CCC1C` (stereo not drawn) [5-(2,5-Dimethyl-pyrrolidin-1-ylmethyl)-6-methyl-7-nitro-1,4-dihydroquinoxaline-2,3-dione], the pIC50 in experiment [1] is 6.13. The “IC50 KA” value in experiment [2] is 2.84 µM.
In experiment [1], `Cc1c([N+](=O)[O-])cc2[nH]c(=O)c(=O)[nH]c2c1CN1CCOCC1` [6-Methyl-5-morpholin-4-ylmethyl-7-nitro-1,4-dihydroquinoxaline-2,3-dione] gave a pIC50 of 6.24. For the same molecule, the “IC50 KA” value in experiment [2] came out at 9.083 µM.
